In patent US11040954B1, “CXCR3 receptor agonists” (RECEPTOS LLC, priority 2016, dated 2021) one finds EC50 data, which are given here for 20 compounds.

pEC50: −log10 of the molar value.

For the experiment, the target named is T1, CXCR3 (Homo sapiens, UniProt P49682).
T1 construct: host or cells: CHO-K1 (cAMP Hunter CHOK1 CXCR3 Gi cell line)
T1 sequence (P49682 1-368): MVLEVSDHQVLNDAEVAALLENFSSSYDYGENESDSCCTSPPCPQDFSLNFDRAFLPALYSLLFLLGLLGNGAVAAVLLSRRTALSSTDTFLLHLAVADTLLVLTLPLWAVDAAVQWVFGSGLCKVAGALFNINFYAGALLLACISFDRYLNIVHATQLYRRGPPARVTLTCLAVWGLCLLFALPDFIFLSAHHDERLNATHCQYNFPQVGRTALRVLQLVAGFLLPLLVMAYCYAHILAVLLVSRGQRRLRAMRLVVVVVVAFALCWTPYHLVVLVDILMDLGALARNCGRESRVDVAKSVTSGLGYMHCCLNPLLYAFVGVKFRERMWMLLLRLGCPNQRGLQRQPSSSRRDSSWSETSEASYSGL
Briefly: CXCR3 cAMP agonist assay (cAMP Hunter CHOK1 CXCR3 Gi cell line, forskolin-stimulated, HitHunter cAMP detection). To be noted: cAMP Hunter CHOK1 CXCR3 Gi cells, 20 μM forskolin, 30 minutes; read-out: Activity (CXCR3 cAMP agonist assay compound EC50). Format: cell-based. On the procedure:
The cAMP Hunter™ CHOK1 CXCR3 Gi cell line was purchased from DiscoveRx. Cells were seeded into a 96-well white assay plate at 50,000 cells/well/94 μl assay buffer (Hank's Buffered Saline Solution, 10 mM HEPES, 0.1% fatty acid-free BSA, pH 7.4) and immediately assayed in suspension. Forskolin was added to 20 μM (5 μl of 400 μM stock) simultaneously with a 12-point dose response curve of compound at 0-10 μM (1 μl of 100× stock in 100% DMSO), and cells were incubated for 30 minutes. A cAMP standard curve is run as an assay control. A CXCL11 dose response was included to determine maximum efficacy. Direct detection of cAMP was carried out using the DiscoveRx HitHunter cAMP kit according to manufacturer's instructions, and luminescence was read using a SpectraMax M5 plate reader.

For the compound `Cc1cc(NC(=O)[C@H](CCN)NC(=O)[C@@H]2Cc3ccccc3CN2C(=O)CCC(=O)N2CCC(C#N)C2)ccc1Cl` (some centres unmarked) [Compound 12-70], the pEC50 (commonly the negative decadic logarithm of the EC50, by convention in mol/L) was 6.60 to 7.30. As for `Cc1cc(NC(=O)[C@H](CCN)NC(=O)[C@@H]2Cc3ccccc3CN2C(=O)CCC(=O)N2CC3(CCOCC3)C2)ccc1Cl` [Compound 12-24], the pEC50 is 6.30 to 6.60.

Regarding `CC1(C)COCCN1C(=O)CCC(=O)N1Cc2ccccc2C[C@H]1C(=O)N[C@@H](CCN)C(=O)Nc1ccc(Cl)c(Cl)c1F` [Compound 15-11], the pEC50 is over 7.30. In the case of `Cc1cc(NC(=O)[C@H](CCN)NC(=O)[C@@H]2Cc3ccccc3CN2C(=O)CCC(=O)N2CCCCC2(C)C)ccc1Cl` [Compound 12-26], the negative-log EC50 (pEC50) was over 7.30. Take `CCc1cc(Cl)c(Cl)cc1NC(=O)[C@H](CCN)NC(=O)[C@@H]1Cc2ccccc2CN1C(=O)CCC(=O)c1ccccc1` [Compound 2-30]: the pEC50 is 6.60 to 7.30. With `Cc1ccc(NC(=O)[C@H](CCCCN)NC(=O)[C@@H]2Cc3ccccc3CN2C(=O)CCC(=O)c2ccccc2)cc1` [Compound 1-3] the figure was 6.60 to 7.30; with `Cc1cc(NC(=O)[C@H](Cc2ccccn2)NC(=O)[C@@H]2Cc3ccccc3CN2C(=O)CCC(=O)c2ccccc2)ccc1Cl` [Compound 3-5], 6.60 to 7.30; with `CC1(C)CCCN(C(=O)CCC(=O)N2Cc3ccccc3C[C@H]2C(=O)N[C@@H](CCN)C(=O)Nc2ccc3c(c2)CCC3)C1` [Compound 10-7], over 7.30.

`Cc1cc(NC(=O)[C@H](CCN)NC(=O)[C@@H]2Cc3ccccc3CN2C(=O)CCC(=O)c2ccccc2)ncc1Cl` [Compound 4-16]: the pEC50 was over 7.30. In the case of `CN(C)[C@H]1CCN(C(=O)CCC(=O)N2Cc3ccccc3C[C@H]2C(=O)N[C@@H](CCN)C(=O)Nc2ccc(Cl)c(Cl)c2F)C1` [Compound 15-30], the pEC50 is 6.60 to 7.30. For `CC1(C)CCCCN1C(=O)CCC(=O)N1Cc2ccccc2C[C@H]1C(=O)NC(CC12CC(N)(C1)C2)C(=O)Nc1ccc(Cl)c(Cl)c1F` (stereo partly drawn) [Compound 33-1, (3S)—N-(3-(3-aminobicyclo[1.1.1]pentan-1-yl)-1-((3,4-dichloro-2-fluorophenyl)amino)-1-oxopropan-2-yl)-2-(4-(2,2-dimethylpiperidin-1-yl)-4-oxobutanoyl)-1,2,3,4-tetrahydroisoquinoline-3-carboxamide], the pEC50 was over 7.30. Next, `Cc1cc(NC(=O)[C@H](CCN)NC(=O)[C@@H]2Cc3ccccc3CN2C(=O)CCC(=O)N2C[C@H](C)C[C@H](C)C2)ccc1Cl` [Compound 12-39]: over 7.30. On to `NCC[C@H](NC(=O)[C@@H]1Cc2ccccc2CN1C(=O)CCC(=O)c1ccccc1)C(=O)Nc1cc(Cl)ccc1F` [Compound 2-37], for which the pEC50 was 6.60 to 7.30. With `Cc1cc(NC(=O)[C@H](CCNC(=N)N)NC(=O)[C@@H]2Cc3ccccc3CN2C(=O)CCC(=O)c2ccccc2)ccc1Cl` [Compound 3-2] the figure was over 7.30; with `Cc1cc(NC(=O)C2(NC(=O)[C@@H]3Cc4ccccc4CN3C(=O)CCC(=O)c3ccccc3)CCNCC2)c(Cl)cc1Cl` [Compound 11-6], over 7.30; with `Cc1cccc(NC(=O)[C@H](CCN)NC(=O)[C@@H]2Cc3ccccc3CN2C(=O)CCC(=O)c2ccccc2)c1F` [Compound 2-32], over 7.30. Regarding `NCC[C@H](NC(=O)[C@@H]1Cc2ccccc2CN1C(=O)CCC(=O)c1ccccc1)C(=O)Nc1cc(Cl)c(Cl)cc1C(F)(F)F` [Compound 14-2], the pEC50 is over 7.30. Consider `CN(C(=O)CCC(=O)N1Cc2ccccc2C[C@H]1C(=O)N[C@@H](CCN)C(=O)Nc1ccc(Cl)c(Cl)c1F)C1CC1` [Compound 15-41], for which the pEC50 was under 6.30. With `Cc1cc(NC(=O)[C@H](CCN)NC(=O)[C@@H]2Cc3ccccc3CN2C(=O)CCC(=O)N2CCOC[C@@H]2C)ccc1Cl` [Compound 12-27], the pEC50 was 6.60 to 7.30. In the case of `NCC[C@H](NC(=O)[C@@H]1Cc2ccccc2CN1C(=O)CCC(=O)N1CCCCC1C1CCC1)C(=O)Nc1ccc(Cl)c(Cl)c1F` (some centres unmarked) [Compound 15-22], the negative logarithm of the EC50 (pEC50) was over 7.30.
